Source: ChEMBL document CHEMBL1136260, “[18F]FMDAA1106 and [18F]FEDAA1106: two positron-emitter labeled ligands for peripheral benzodiazepine receptor (PBR)” (Bioorg Med Chem Lett, 2003)
pIC50, pKi: −log10 of the molar value.

Experiments:
[1] = target: GABA-A receptor; anion channel; experiment: In vitro displacement of [11C]Flumazenil from (CBR) central GABA-A benzodiazepine receptor of rat brain
[2] = Partition coefficient (logP); format: physicochemical; conditions: octanol/water
Translocator protein = Translocator protein (Rattus norvegicus, UniProt P16257); experiment: In vitro binding affinity for PBR (peripheral benzodiazepine receptor) in rat brain; format: tissue-based
Sequence of Translocator protein (P16257 whole entry, looked up): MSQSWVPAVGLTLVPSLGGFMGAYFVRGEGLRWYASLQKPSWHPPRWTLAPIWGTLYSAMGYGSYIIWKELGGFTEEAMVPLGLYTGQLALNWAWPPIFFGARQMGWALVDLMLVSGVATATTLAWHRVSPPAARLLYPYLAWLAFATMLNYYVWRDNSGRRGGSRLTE

Structure (SMILES) | pIC50 [1] | logP [2] | pKi (Translocator protein)
CC[C@@H](C)N(C)C(=O)c1cc2ccccc2c(-c2ccccc2Cl)n1 [PK-11195] | < 5.00 |  | 
COc1ccc(OC)c(CN(C(C)=O)c2cc(F)ccc2Oc2ccccc2)c1 | < 5.00 | 3.65 | 10.37
COc1ccc(OCF)c(CN(C(C)=O)c2cc(F)ccc2Oc2ccccc2)c1 | < 5.00 | 3.7 | 
COc1ccc(OCCF)c(CN(C(C)=O)c2cc(F)ccc2Oc2ccccc2)c1 | < 5.00 | 3.81 | 
